Reference: patent US9204645B2, “Insecticidal aromatic amides” (BAYER INTELLECTUAL PROPERTY GMBH, priority 2011, dated 2015)

Assays:
[1] = test system: greenhouse red spider mite (Tetranychus urticae); experiment: Tetranychus urticae spray test, OP-resistant (TETRUR), bean plants; assay type: in vivo; settings: 168 h, 7 dat
Procedure: Tetranychus urticae—Spray Test, OP-resistant (TETRUR) • Solvent: 7 parts by weight of dimethylformamide • Emulsifier: 2 parts by weight of alkylaryl polyglycol ether
(§1) To produce a suitable preparation of active compound, 1 part by weight of active compound is mixed with the stated amounts of solvent and emulsifier, and the concentrate is diluted with emulsifier-containing water to the desired concentration. If the addition of ammonium salts or/and penetrants is required, these are in each case added in a concentration of 1000 ppm to the solution of the preparation.
Bean plants (Phaseolus vulgaris) which are heavily infested by all stages of the greenhouse red spider mite (Tetranychus urticae) are sprayed with an active compound preparation of the desired concentration.
(§2) After the desired period of time, the effect in % is determined. 100% means that all of the spider mites have been killed; 0% means that none of the spider mites have been killed.

[2] = test system: greenhouse red spider mite (Tetranychus urticae); experiment: Tetranychus urticae drench test, OP-resistant, systemic treatment (TETRUR sys.); assay type: in vivo; settings: soil, 336 h, 14 dat
Procedure: Tetranychus urticae—Drench Test, OP-resistant, systemic treatment (TETRUR sys.)
• Solvent: 7 parts by weight of dimethylformamide • Emulsifier: 2 parts by weight of alkylaryl polyglycol ether
as §1, with “with” for “with emulsifier-containing”
Bean plants (Phaseolus vulgaris) which are heavily infested by all stages of the greenhouse red spider mite (Tetranychus urticae) are watered with an active compound preparation of the desired concentration.
as §2

For `CC(=O)NCc1cc(NC(=O)c2c(C(F)(F)F)c(C(F)(F)C(F)(F)F)nn2C)ccc1F` [Example 13], the inhibition at 20 ppm [1] was 30% and the inhibition at 20 ppm [2] was 90%.

Compound `CCNC(=O)c1cc(NC(=O)c2c(C(F)(F)F)c(C(F)(F)C(F)(F)F)nn2C)ccc1Cl` [Example Ik-66, reference compound] has an inhibition at 20 ppm [1] of 0% and an inhibition at 20 ppm [2] of 30%.
